Experimental data as given in ChEMBL document CHEMBL5653615 (J Biol Chem, 2013).

Columns and labels:
[1] = target: T1, Aurora kinase C (Homo sapiens) (UniProt Q9UQB9); assay: Inhibition of human Aurora C at 500 nM by HotSpot assay relative to control
T1 sequence (whole entry): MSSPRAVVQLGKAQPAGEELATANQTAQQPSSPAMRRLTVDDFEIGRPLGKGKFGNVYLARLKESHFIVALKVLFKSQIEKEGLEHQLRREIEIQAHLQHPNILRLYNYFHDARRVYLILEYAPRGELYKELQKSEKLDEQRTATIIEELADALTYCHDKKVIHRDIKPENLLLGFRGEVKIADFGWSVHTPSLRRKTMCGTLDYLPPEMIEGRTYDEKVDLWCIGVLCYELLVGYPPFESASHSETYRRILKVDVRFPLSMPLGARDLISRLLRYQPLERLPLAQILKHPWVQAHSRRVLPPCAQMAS

[2] = target: T2, MAP/microtubule affinity-regulating kinase 4 (Homo sapiens) (UniProt Q96L34); assay: Inhibition of human MARK4 at 500 nM by HotSpot assay relative to control
T2 sequence (whole entry): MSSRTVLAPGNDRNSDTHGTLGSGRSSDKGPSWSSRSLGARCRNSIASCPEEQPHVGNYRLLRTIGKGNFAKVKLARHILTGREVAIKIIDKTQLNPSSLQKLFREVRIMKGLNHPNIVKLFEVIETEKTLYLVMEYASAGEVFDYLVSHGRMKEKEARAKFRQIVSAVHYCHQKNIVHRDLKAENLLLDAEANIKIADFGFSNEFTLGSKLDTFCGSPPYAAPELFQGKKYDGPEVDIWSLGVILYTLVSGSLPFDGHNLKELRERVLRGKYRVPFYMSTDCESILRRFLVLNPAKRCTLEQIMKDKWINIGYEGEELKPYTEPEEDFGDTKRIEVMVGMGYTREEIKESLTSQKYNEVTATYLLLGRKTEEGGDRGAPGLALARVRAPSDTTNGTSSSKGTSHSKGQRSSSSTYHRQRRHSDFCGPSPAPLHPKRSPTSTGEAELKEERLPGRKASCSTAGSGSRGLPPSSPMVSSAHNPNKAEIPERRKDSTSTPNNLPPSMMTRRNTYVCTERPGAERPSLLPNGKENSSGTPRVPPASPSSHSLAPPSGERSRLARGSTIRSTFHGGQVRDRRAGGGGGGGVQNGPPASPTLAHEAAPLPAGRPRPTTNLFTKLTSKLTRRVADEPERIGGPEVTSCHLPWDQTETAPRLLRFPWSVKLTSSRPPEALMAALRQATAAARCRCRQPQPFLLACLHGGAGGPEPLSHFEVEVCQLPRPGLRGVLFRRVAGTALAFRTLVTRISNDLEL

[3] = target: T3, Serine/threonine-protein kinase 4 (Homo sapiens) (UniProt Q13043); assay: Inhibition of human STK4 at 500 nM by HotSpot assay relative to control
T3 sequence (whole entry): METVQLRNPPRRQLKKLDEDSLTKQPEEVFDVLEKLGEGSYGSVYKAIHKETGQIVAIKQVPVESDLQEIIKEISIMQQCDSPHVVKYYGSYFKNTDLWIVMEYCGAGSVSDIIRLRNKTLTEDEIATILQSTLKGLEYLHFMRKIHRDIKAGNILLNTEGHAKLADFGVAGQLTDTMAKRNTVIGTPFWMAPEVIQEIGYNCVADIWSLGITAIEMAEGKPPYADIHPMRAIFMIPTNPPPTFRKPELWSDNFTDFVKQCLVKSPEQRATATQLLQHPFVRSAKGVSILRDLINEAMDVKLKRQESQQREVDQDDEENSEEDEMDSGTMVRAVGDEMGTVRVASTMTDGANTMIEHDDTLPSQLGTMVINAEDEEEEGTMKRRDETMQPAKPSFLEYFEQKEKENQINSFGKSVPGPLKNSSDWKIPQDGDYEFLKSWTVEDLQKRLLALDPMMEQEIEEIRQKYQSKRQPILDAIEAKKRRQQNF

[4] = target: Serine/threonine-protein kinase 33 (Homo sapiens) (UniProt Q9BYT3); assay: Inhibition of human STK33 at 500 nM by HotSpot assay relative to control
[5] = target: T4, Serine/threonine-protein kinase ULK2 (Homo sapiens) (UniProt Q8IYT8); assay: Inhibition of human ULK2 at 500 nM by HotSpot assay relative to control
T4 sequence (whole entry): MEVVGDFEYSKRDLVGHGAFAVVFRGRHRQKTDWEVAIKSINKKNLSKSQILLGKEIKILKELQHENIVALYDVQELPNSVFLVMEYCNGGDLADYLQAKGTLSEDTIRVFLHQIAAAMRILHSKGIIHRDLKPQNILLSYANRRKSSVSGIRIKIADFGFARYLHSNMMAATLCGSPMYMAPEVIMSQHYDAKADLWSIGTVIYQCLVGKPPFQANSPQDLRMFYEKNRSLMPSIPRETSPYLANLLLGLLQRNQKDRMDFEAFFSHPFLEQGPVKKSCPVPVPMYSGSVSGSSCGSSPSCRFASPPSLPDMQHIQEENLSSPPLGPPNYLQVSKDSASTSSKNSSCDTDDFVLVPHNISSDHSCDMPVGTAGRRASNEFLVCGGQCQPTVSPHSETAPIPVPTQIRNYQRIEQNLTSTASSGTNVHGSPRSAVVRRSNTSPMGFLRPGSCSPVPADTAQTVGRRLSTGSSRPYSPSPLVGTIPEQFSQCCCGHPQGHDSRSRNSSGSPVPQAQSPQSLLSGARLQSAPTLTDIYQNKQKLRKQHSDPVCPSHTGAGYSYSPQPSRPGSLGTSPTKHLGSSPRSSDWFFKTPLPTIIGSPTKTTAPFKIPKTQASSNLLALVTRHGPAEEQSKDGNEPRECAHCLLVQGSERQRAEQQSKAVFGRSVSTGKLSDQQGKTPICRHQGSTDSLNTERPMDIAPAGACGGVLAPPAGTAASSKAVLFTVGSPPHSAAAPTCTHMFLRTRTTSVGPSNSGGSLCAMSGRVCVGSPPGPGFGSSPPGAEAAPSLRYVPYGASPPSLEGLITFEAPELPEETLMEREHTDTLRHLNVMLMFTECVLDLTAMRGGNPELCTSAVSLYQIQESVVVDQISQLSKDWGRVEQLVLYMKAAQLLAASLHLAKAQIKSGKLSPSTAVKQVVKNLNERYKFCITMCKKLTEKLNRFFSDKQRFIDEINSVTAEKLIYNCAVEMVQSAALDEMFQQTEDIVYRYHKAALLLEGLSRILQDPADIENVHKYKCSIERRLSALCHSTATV

Chain of Serine/threonine-protein kinase 33 (Homo sapiens) (Q9BYT3 whole entry, looked up): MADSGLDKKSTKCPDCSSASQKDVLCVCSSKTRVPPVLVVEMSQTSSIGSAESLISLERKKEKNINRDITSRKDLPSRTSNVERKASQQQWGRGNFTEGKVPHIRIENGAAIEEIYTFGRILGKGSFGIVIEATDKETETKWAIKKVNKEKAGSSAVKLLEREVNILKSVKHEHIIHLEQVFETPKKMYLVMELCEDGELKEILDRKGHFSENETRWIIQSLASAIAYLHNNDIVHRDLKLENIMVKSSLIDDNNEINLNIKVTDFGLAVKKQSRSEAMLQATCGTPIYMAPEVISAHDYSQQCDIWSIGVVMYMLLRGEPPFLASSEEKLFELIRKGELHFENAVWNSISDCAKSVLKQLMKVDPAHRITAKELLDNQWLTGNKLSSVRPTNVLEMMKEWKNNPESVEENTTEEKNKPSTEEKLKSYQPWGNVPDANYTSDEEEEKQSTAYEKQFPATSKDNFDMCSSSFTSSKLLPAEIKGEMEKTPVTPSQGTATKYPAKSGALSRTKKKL

Row | Compound | inhibition [1] [%] | inhibition [2] [%] | inhibition [3] [%] | inhibition [4] [%] | inhibition [5] [%]
1 | Nc1n[nH]c2nnc(-c3c(-c4ccccc4)nn4ccccc34)cc12 | 3.59 | -4.7 | 0.86 | -0.39 | 0.02
2 | Oc1n[nH]c2nnc(-c3c(-c4ccccc4)nn4ccccc34)cc12 | 2.04 | -3.17 | -0.48 | -0.22 | 0.86
